The target in experiment [1] is T1, fibrinogen binding to thrombin-stimulated platelets (GPIIb/IIIa fibrinogen receptor) (Homo sapiens, UniProt P05106+P08514).
T1 construct: endogenous in cells; host or cells: washed platelets stimulated with human alpha-thrombin
As to the kind of experiment: Inhibition of Radiolabeled (125I) Fibrinogen Binding Assay. To be noted: read-out: Inhibition of 125I-Fibrinogen (binding to) Platelet IC50. The protocol: I. Inhibition of Radiolabeled (^125 I) Fibrinogen Binding Assay, which is essentially based on the method described in Proc. Natl. Acad. Sci. USA Vol. 83, pp. 5708-5712, Aug. 1986, and is as follows.
Platelets are washed free of plasma constituents by the albumin density-gradient technique. In each experimental mixture platelets in modified Tyrode's buffer are stimulated with human α-thrombin at 22°-25° C. for 10 minutes (3.125×10" platelets per liter and thrombin at […]). Hirudin is then added at a 25-fold excess for 5 minutes before addition of the radiolabeled ligand and any competing ligand. After these additions, the final platelet count in the mixture is 1×10"/liter. After incubation for an additional 30 minutes at 22°-25° C., bound and free ligand are separated by centrifuging 50 μl of the mixture through 300 μl of 20% sucrose at 12,000 xg for 4 minutes. The platelet pellet is then separated from the rest of the mixture to determine platelet-bound radioactivity. Nonspecific binding is measured in mixtures containing an excess of unlabeled ligand. When binding curves are analyzed by Scatchard analysis, nonspecific binding is derived as a fitted parameter from the binding isotherm by means of a computerized program. To determine the concentration of each inhibitory compound necessary to inhibit 50% of fibrinogen binding to thrombin-stimulated platelets (IC50), each compound is tested at 0.176 μgmol/liter (60 μg/ml). The IC50 is derived by plotting residual fibrinogen binding against the logarithm of the sample compound's concentration.

For the next experiment, the system named is Human Platelets. Briefly: Inhibition of Fibrinogen-Mediated Platelet Aggregation. Type of experiment: cell-based. To be noted: thrombin-activated human platelets; for Inhibition of Fibrinogen Mediated Platelet Aggregation % inhibition at 25 μM / inhibition at 25 µM: 25 μM compound; for IC50: human fibrinogen added, rate of aggregation. The protocol:
II. Inhibition of Fibrinogen--Mediated Platelet Aggregation, which is essentially based on the method described in Blood, Vol. 66, No. 4, Oct. 1985, pp. 846-952, and is as follows.
Human Platelets were isolated from freshly drawn whole blood and were suspended in 0.14 mol/L NaCl, 2.7 mmol/L […], 12 mmol/L NaHCO3, 0.42 mmol/L Na2 HPO4, 0.55 mmol/L glucose, and 5 mmol/L Hepes, pH 7.35 at 2×10^8 platelets/ml. The suspension was incubated at 37° C. An aliquot of 0.4 ml of platelet suspension was activated by human thrombin at a final concentration of 2 μg/ml of thrombin for one minute. After one minute the reaction was stopped by a thrombin inhibitor. Serial dilution of the compound being tested was then added to the activated platelet, the reaction was allowed to proceed for one minute, followed by the addition of human fibrinogen at a final concentration of […] of fibrinogen. Platelet aggregation was then recorded by an aggregometer. Rate of aggregation was used to calculate IC50.

Where [2] appears, read: thrombin-stimulated washed platelets, 22-25° C.
[3] abbreviates: no inhibition at concentrations of 50 μM or lower.

Like-named read-outs stand apart in the source and are kept apart here.

T1 sequence (P08514 32-887 limits assumed): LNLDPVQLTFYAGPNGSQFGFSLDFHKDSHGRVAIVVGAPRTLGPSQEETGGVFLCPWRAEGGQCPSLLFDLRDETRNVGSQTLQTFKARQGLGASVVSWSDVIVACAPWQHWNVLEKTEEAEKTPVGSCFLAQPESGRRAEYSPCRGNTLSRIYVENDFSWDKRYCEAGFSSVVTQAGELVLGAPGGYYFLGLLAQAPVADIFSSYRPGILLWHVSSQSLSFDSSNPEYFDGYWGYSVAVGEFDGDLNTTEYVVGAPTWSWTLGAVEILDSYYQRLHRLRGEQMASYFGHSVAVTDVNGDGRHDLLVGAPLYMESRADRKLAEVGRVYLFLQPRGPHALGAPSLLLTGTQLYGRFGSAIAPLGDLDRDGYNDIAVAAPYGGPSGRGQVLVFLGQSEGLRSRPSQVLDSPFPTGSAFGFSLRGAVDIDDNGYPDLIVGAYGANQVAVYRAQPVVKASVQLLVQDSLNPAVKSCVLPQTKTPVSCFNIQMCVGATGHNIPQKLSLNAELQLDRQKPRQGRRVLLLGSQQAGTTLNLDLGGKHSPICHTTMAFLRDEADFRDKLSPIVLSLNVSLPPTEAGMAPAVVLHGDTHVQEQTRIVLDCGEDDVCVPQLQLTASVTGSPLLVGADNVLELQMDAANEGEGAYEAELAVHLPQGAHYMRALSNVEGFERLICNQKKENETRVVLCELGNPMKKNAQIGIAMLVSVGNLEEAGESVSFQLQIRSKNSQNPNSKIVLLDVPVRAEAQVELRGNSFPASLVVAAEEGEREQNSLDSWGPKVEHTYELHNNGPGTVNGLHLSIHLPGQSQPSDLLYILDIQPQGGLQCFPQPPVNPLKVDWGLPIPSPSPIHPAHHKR
T1 sequence (P08514 891-1039 limits assumed): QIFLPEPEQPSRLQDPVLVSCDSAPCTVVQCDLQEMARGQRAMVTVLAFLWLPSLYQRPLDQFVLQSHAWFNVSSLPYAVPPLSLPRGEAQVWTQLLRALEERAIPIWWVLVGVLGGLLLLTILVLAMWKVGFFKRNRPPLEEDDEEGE
T1 sequence (P05106 27-788): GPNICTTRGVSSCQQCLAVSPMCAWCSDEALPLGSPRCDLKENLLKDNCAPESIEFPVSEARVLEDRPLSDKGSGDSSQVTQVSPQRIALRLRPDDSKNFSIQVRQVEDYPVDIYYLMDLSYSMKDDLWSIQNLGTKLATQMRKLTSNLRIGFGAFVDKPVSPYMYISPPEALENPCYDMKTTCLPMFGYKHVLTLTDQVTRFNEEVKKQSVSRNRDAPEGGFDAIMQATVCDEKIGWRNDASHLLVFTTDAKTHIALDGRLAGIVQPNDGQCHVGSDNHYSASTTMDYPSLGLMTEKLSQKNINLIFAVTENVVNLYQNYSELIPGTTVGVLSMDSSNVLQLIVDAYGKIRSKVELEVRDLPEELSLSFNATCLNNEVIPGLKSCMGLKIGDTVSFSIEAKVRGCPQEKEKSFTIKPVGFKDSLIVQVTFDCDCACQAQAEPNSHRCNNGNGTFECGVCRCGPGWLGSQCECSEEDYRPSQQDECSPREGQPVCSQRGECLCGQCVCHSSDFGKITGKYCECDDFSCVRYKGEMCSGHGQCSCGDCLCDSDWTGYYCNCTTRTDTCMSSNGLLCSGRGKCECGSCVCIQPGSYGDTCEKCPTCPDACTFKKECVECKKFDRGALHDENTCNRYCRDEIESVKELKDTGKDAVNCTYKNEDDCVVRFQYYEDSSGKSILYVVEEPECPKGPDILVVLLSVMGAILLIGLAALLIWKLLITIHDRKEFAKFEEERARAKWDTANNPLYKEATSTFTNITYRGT

With `CC(C)[C@H](NC(=O)[C@H](CC(=O)O)NC(=O)c1ccc(CCNC(=N)N)cc1)C(=O)O` [4-(2-quanidinoethyl)benzoyl]-L-aspartyl-L-valine], the concentration for half-maximal inhibition (IC50) in experiment [1] (setting [2]) came out at 10.9 µM. Besides, in the experiment on Human Platelets, the “Inhibition of Fibrinogen Mediated Platelet Aggregation % inhibition at 25 μM” value was found to be 85.0% and half-maximal inhibition (IC50) was put at 7.7 µM.

With `CC(C)[C@H](NC(=O)[C@H](CC(=O)O)NC(=O)c1ccc(CNC(=N)N)cc1)C(=O)O` [N-(4-guanidinomethylbenzoyl)-L-aspartyl-L-valine], in experiment [1] (setting [2]), the IC50 came to 22 µM. The same compound showed an inhibition at 25 µM in the experiment with Human Platelets (Platelet) of 16%.

On to `CC(C)[C@H](NC(=O)[C@H](CC(=O)O)NC(=O)CCc1ccc(NC(=N)N)cc1)C(=O)O` [3-(4-guanidinophenyl)propanoyl-L-aspartyl-L-valine], for which, in experiment [1] (setting [2]), the IC50 was 4.5 µM. In the experiment with Human Platelets (Platelet), this compound showed an inhibition at 25 µM of 65% and an IC50 of 14 µM.

On to `CC(C)[C@H](NC(=O)[C@H](CC(=O)O)NC(=O)Cc1ccc(NC(=N)N)cc1)C(=O)O` [N-(4-guanidinophenylacetoyl)-L-aspartyl-L-valine], for which the 50% inhibitory concentration (IC50) in experiment [1] (setting [2]) turned out to be 20 µM. Moreover, the inhibition at 25 µM in the experiment on Human Platelets (Platelet) came out at 43%.

Turning to `CC(C)[C@H](NC(=O)[C@H](CC(=O)O)NC(=O)c1cccc(CNC(=N)N)c1)C(=O)O` [N-(3-guanidinomethylbenzoyl)-L-aspartyl-L-valine], the IC50 in experiment [1] (setting [3]) was at least 50 µM; in the experiment on Human Platelets (Platelet), 30.2 µM. The inhibition at 25 µM with Human Platelets (Platelet) was found to be 53%.

`CC(C)[C@H](NC(=O)[C@H](CC(=O)O)NC(=O)c1cccc(CCNC(=N)N)c1)C(=O)O` [N-[3-(2-guanidinoethyl)benzoyl]-L-aspartyl-L-valine]: the IC50 in experiment [1] (setting [2]) came to 115 µM. For the same compound, in the experiment on Human Platelets (Platelet), the inhibition at 25 µM came to 37% and the IC50 was 33.1 µM.

On to `CC(C)[C@H](NC(=O)[C@H](CC(=O)O)NC(=O)C=Cc1ccc(NC(=N)N)cc1)C(=O)O` [4-Guanidino cinnamoyl-L-aspartyl-L-valine], for which, in experiment [1] (setting [2]), the IC50 came out at 0.25 µM. In the experiment on Human Platelets (Platelet), this compound showed an inhibition at 25 µM of 25% and a 50% inhibitory concentration (IC50) of 2.8 µM.

Take `CC(C)[C@H](NC(=O)[C@H](CC(=O)O)NC(=O)c1ccc(NC(=N)N)cc1)C(=O)O` [4-Guanidinobenzoyl-L-aspartyl-L-valine, N-(4-quanidinobenzoyl)-L-aspartyl-L-valine]: in the experiment on Human Platelets, the “Inhibition of Fibrinogen Mediated Platelet Aggregation % inhibition at 25 μM” value came to 33.0%.

Consider `CC(C)[C@H](NC(=O)[C@H](CC(=O)O)NC(=O)c1cccc(NC(=N)N)c1)C(=O)O` [3-Guanidinobenzoyl-L-aspartyl-L-valine, N-(3-guanidinobenzoyl)-L-aspartyl-L-valine], for which, in experiment [1] (setting [3]), the IC50 is at least 50 µM. Also, the inhibition at 25 µM in the experiment on Human Platelets (Platelet) was found to be 6.3%.

As to `CC(C)[C@H](NC(=O)[C@H](CC(=O)O)NC(=O)Cc1ccc(CNC(=N)N)cc1)C(=O)O` [4-Guanidinomethyl phenylacetoyl-L-aspartyl-L-valine], the IC50 in experiment [1] (setting [3]) was at least 50 µM. For the same compound, 25 µM produced 42% inhibition in the experiment with Human Platelets (Platelet).

Take `CC(C)[C@H](NC(=O)[C@H](CC(=O)O)NC(=O)Cc1cccc(CNC(=N)N)c1)C(=O)O` [3-Guanidinomethylphenylacetoyl-L-aspartyl-L-valine]: the inhibition at 25 µM in the experiment with Human Platelets (Platelet) is 15.2%.

In the experiment on Human Platelets (Platelet), `CC(C)[C@H](NC(=O)[C@H](CC(=O)O)NC(=O)c1ccc(CCCNC(=N)N)cc1)C(=O)O` [4-(3-Guanidinopropyl)benzoyl-L-aspartyl-L-valine] registered an inhibition at 25 µM of 83.3% and an IC50 of 7.6 µM.

On to `CC(C)[C@H](NC(=O)[C@H](CC(=O)O)NC(=O)c1cccc(CCCNC(=N)N)c1)C(=O)O` [3-(3-Guanidinopropyl)benzoyl-L-aspartyl-L-valine], for which the IC50 in experiment [1] (setting [3]) is at least 50 µM. Also, the inhibition at 25 µM in the experiment on Human Platelets (Platelet) came to 52%.

One may read the IC50 as the concentration that inhibits the measured activity by half. For orientation: inhibition means the drop in the measured response relative to a control, in per cent. Lower therefore signals little suppression.

Source of the values: US5086069A, “Anti-thrombotic peptide and pseudopeptide derivatives” (Rorer Pharmaceutical Corporation, priority 1990, dated 1992).
